Assay results reported in US10246418B2, “Crystal form of lenvatinib methanesulfonate salt and preparation method thereof” (CRYSTAL PHARMATECH CO., LTD., priority 2015, dated 2019).
Values after ≈ are worked out from the molar mass of the structure shown.

Experiments:
[1] = Solubility comparison: saturated solutions in SGF, FaSSIF, FeSSIF and high purity water, concentration by HPLC; conditions: for Solubility: HPLC; for solubility at 24 h: thermodynamic from solid
Description: Solubility comparison between crystalline Form M of lenvatinib mesylate of the present disclosure and anhydrate Form C in patent CN1890220A:
Crystalline Form M of lenvatinib mesylate prepared in example 1 and anhydrate Form C in CN1890220A were prepared into saturated solution in pH 1.8 SGF (Simulated gastric fluid), pH 5.0 FeSSIF (Fed state simulated intestinal fluid), FassIF (Fasted state simulated intestinal fluid) and high purity water. Concentrations in the saturated solutions were determined after 24 hours by HPLC.

[2] = Stability assessment of crystalline form by XRPD before and after storage; assay type: physicochemical; conditions: 7 days
Description: FIG. 7a˜7c show XRPD patterns overlay of crystalline Form M of lenvatinib mesylate before and after stored in the following conditions for 7 days: a) sealed in aluminum plastic bags at 25° C./60% RH; b) sealed in aluminum plastic bags at 40° C./75% RH; c) sealed in aluminum plastic bags at 60° C./75% RH.
Stability assessment of Form M of lenvatinib mesylate of the present disclosure:
Three samples of crystalline Form M of lenvatinib mesylate were stored under the following conditions: a) sealed in aluminum plastic bags at 25° C./60% RH; b) sealed in aluminum plastic bags at 40° C./75% RH; c) sealed in aluminum plastic bags at 60° C./75% RH. The samples were tested by XRPD before and after stored for 7 days.

Row | SMILES | Solubility ([1]; FaSSIF (fasted state simulated intestinal fluid), saturated solution, 24 h) [µg/mL] | Solubility ([1]; FeSSIF (fed state simulated intestinal fluid) pH 5.0, saturated solution, 24 h) [µg/mL] | Solubility ([1]; High purity water, saturated solution, 24 h) [µg/mL] | Solubility ([1]; SGF (simulated gastric fluid) pH 1.8, saturated solution, 24 h) [µg/mL] | Solubility in comparison with Form C in patent CN1890220A ([1]; SGF, FaSSIF, FeSSIF, high purity water, 24 h) | solubility at 24 h ([1]; fasted state simulated intestinal fluid (FaSSIF), fassif) [µg/mL] | solubility at 24 h ([1]; fed state simulated intestinal fluid (FeSSIF), pH 5, fessif) [µg/mL] | solubility at 24 h ([1]; high purity water, water) [µg/mL] | solubility at 24 h ([1]; simulated gastric fluid (SGF), pH 1.8, simulated gastric fluid) [µg/mL] | Crystalline form stability (XRPD pattern before and after storage) ([2]; sealed in aluminum plastic bags at 25° C./60% RH) | Crystalline form stability (XRPD pattern before and after storage) ([2]; sealed in aluminum plastic bags at 40° C./75% RH) | Crystalline form stability (XRPD pattern before and after storage) ([2]; sealed in aluminum plastic bags at 60° C./75% RH)
1 | COc1cc2nccc(Oc3ccc(NC(=O)NC4CC4)c(Cl)c3)c2cc1C(N)=O.CS(=O)(=O)O [Form C, reference compound] | 1.5 | 0.3 | 1000 | 640 |  |  |  |  |  |  |  | 
2 | COc1cc2nccc(Oc3ccc(NC(=O)NC4CC4)c(Cl)c3)c2cc1C(N)=O [Form M, 4-{3-Chloro-4-[(cyclopropylcarbamoyl)amino]phenoxy}-7-methoxy-6-quinolinecarboxamide] |  |  |  |  | higher solubility | 24 (≈ 56.2 µM) | 0.4 (≈ 0.937 µM) | 1600 (≈ 3750 µM) | 690 (≈ 1620 µM) | remained unchanged | remained unchanged | remained unchanged
